Where two headings read alike, the source gives them in different places. Each block holds one substance with its values, some of them ahead of it.
What was measured:
[1] = Water solubility of the prepared compound; assay type: physicochemical
Description: Bismuth iodiscorbate was prepared by dissolving 58 g of concentrated hydriodic acid (56.1 weight-percent) into 350 mls of water. Next, 5 g of 0.0085 molar bismuth (III) iodide was crushed in a mortar, and then dissolved in the solution. Next, 2.3 g of 0.0085 molar strontium hydroxide octahydrate was stirred into the solution, followed by the addition of 4.5 g of 0.026 molar L-ascorbic acid. The mixture was stirred for three hours, then stripped to dryness on a rotary evaporator. The residue then was redissolved in 500 ml water and filtered, and again stripped on a rotary evaporator. This process assisted in the removal of excess hydriodic acid. The residue again was dissolved in 500 ml of water, filtered, and stripped to dryness on a rotary evaporator. An orange solid then was removed from the flask and bottled. This procedure yielded 9.1 g of what is designated as SrBiI2[ascorbate]3. This compound was water soluble.
Potassium iodiscorbate was prepared by adding 6.5 g of 0.12 molar potassium hydroxide and 16.0 g of 0.06 molar strontium hydroxide octahydrate to 500 ml water in a 1000-ml beaker, resulting in a white, cloudy solution. The mixture was stirred for about 2 hours. Next, 13.0 g of 0.06 molar hydriodic acid (56 weight-percent) was added, and the mixture was stirred for three hours. Next, […] of 0.18 molar L-ascorbic acid was added, turning the mixture clear in about 5 minutes. The mixture then was stirred for another 0.5 hour. The water was removed under vacuo, and the residue dried under vacuum for about 8 hours. The solids were removed from the flask and bottles. The structure is designated as [ascorbate]2SrK[ascorbate]KI. This compound also was water soluble.
Zinc iodiscorbate was prepared by adding 4.0 g of 0.05 molar zinc oxide and 13.3 g of 0.05 molar strontium hydroxide octahydrate to 500 ml of distilled water, resulting in a white suspension. The mixture then was treated with 11.2 g of 0.05 molar concentrated hydriodic acid and stirred for two hours. A white suspension still remained. […]

[2] = test system: MCF-7 breast carcinoma cells; assay: In vitro percent cell survival, crystal violet assay, breast carcinoma cells; assay type: cell-based, human; details: 48 hours
Description: (§1) Three compounds of the present invention, specifically, bismuth iodiscorbate, potassium iodiscorbate, and zinc iodiscorbate, were tested in vitro on both tumorous and normal human cells. Three cell lines were obtained through the American Type Culture Collection (Rockville, Maryland). The first cell line, designated HUV-EC-C, consisted of human umbilical cord vein normal endothelial cells. These noncancerous cells were used as a control. The second cell line, MCF-7, consisted of breast carcinoma cells. The third cell line, ME-180, consisted of uterine cervix carcinoma cells.
(§2) The data shown in FIGS. 5-7 were derived by the following steps. HUV-EC-C was cultured in a solution of 90% F12 medium (GIBCO-BRL, Grand Island, N.Y.) and 10% fetal bovine serum (Hyclone, Logan, Utah) with 100 μg/ml heparin and 30 μg/ml ECGF (endothelial cell growth factor; Sigma Chemical Co., St. Louis, Mo.). MCF-7 and ME-180 were grown in a solution of 90% minimal essential medium (GIBCO-BRL) and 10% fetal bovine serum (Hyclone). The cells were grown to approximately 90% confluence in T25 cell culture flasks (Falcon-Becton Dickinson Labware, Franklin Lakes, N.J.) in a 37° C. humidified incubator in the presence of 5% C02−95% air.
(§3) Flasks were removed from the incubator and placed in a sterile laminar flow hood. All cell manipulation procedures were performed in this sterile hood. The flasks were rinsed in 5 ml of sterile phosphate-buffered saline (PBS; Sigma) and the monolayer of cells was released from the flask by adding 5 ml of 1X trypsin-EDTA (Sigma) in PBS. The flask was capped and placed back in the incubator for 10 minutes. The flasks were removed from the incubator, and cells plus trypsin-EDTA solution were transferred to a 15 ml centrifuge tube (Falcon) and 5 ml of cell growth medium was added. The tubes were centrifuged at 500 g for 10 minutes at room temperature. The tubes then were placed back in the hood and supernatant (top liquid) was removed with a sterile pipette (Falcon). […] The cell density in the hemacytometer was determined by counting cells visible by microscopy. […]

[3] = test system: ME-180 uterine cervix carcinoma cells; assay: In vitro percent cell survival, crystal violet assay, uterine cervix carcinoma cells; assay type: cell-based, human; details: 48 hours; for survival of human cervical carcinoma cells (ME-180): concentration not given
Description: as §1, §2, §3

[4] = test system: cells at high density (near confluence in culture dishes); assay: Treatment of cells at high density (near confluence); assay type: cell-based, human; details: 400 μg/ml
Source text: FIG. 5 depicts percent cell survival against various concentrations of potassium iodiscorbate.

[5] = test system: HUV-EC-C human umbilical cord vein normal endothelial cells; assay: In vitro percent cell survival, crystal violet assay, normal endothelial cells (control); assay type: cell-based; details: 48 hours
Description: as §1, §2
Flasks were removed from the incubator and placed in a sterile laminar flow hood. […] The cell density in the hemacytometer was determined by counting cells visible by microscopy. […]

mice = assay: In vivo toxicology study in mice
Description: A toxicology study also was performed. Specifically, the toxicology of potassium iodiscorbate was evaluated through in vivo tests on mice. Potassium iodiscorbate was prepared as a stock solution of 175 mg/ml in saline and administered to mice. Injections consisted of a volume not exceeding 0.1 ml administered through the tail vein (intravenously), or a volume not exceeding 0.2 ml (by an intraperitoneal route). Doses up to 1000 mg/kg (intraperitoneal injection) and 500 mg/kg (intravenous injection) caused no apparent toxicity. This dose should permit use of the compounds of the present invention in concentrations (refer to FIGS. 5-7) that approximate those necessary for selective inhibition of malignant cell growth.

- solubility in water [1]: water soluble
Substance: Bismuth iodiscorbate
- survival of human breast cancer cells (MCF-7) ([2]; concentration not given): effective in reducing the survival
- survival of human cervical carcinoma cells (ME-180) [3]: effective in reducing the survival

Substance: Potassium iodiscorbate
- solubility in water ([1]; product as prepared): water soluble
- effect on cells at high density [4]: little effect
- growth of normal human endothelial cells (HUV-EC-C) ([5]; any concentration tested): did not affect the growth
- survival of breast carcinoma cells (MCF-7) ([2]; concentrations greater than 100 μg/ml): reducing dramatically the survival
- survival of human cervical carcinoma cells (ME-180) [3]: reduced dramatically the survival
- doses that caused no apparent toxicity (mice; intraperitoneal injection): up to 1000 mg/kg
- doses that caused no apparent toxicity (mice; intravenous injection (tail vein)): ≤ 500 mg/kg

Substance: Zinc iodiscorbate
- solubility in water ([1]; product as prepared): water soluble
- normal cell growth (HUV-EC-C) ([5]; about 80-100 μg/ml): without serious reduction of normal cell growth
- survival of breast carcinoma cells (MCF-7) with respect to normal cell growth ([2]; about 80-100 μg/ml): reduced dramatically
- survival of cervical carcinoma cells (ME-180) with respect to normal cell growth ([3]; about 80-100 μg/ml): reduced dramatically

From patent publication US20020037327A1, “Treatment for cancer and compounds for use therein” (priority 1997, published 2002)
